Source: patent US8603518B2, “Hydroxybutyrate and poly-hydroxybutyrate as components of animal feed or feed additives” (Universiteit Gent, priority 2006, dated 2013)

Experiments:
[1] = system: Artemia nauplii infected with Vibrio campbellii LMG21363; test: In vivo challenge test of Artemia nauplii with Vibrio campbellii LMG21363 (Example 8); parameters: species or system Artemia franciscana; settings: 2 days challenge, mean ± standard error
Procedure: All challenge tests were performed with high quality hatching cysts of Artemia franciscana (EG® Type, batch 6940, INVE Aquaculture, Baasrode, Belgium). Two hundred mg of cysts were hydrated in 18 ml of tap water during 1 h. Sterile cysts and nauplii were obtained via decapsulation, adapted from the protocol described by Marques et al. (2004). […] The decapsulation was stopped after 2 min by adding 14 ml of Na2S2O3 (10 gl^−1). During the reaction, 0.22 μm filtered aeration was provided. The decapsulated cysts were washed with autoclaved artificial seawater containing 35 g l^−1 of Instant Ocean synthetic sea salt (Aquarium Systems Inc., Sarrebourg, France). The cysts were resuspended in a 50 ml tube containing 30 ml of filtered and autoclaved artificial seawater and hatched for 24 h on a rotor (4 min^−1) at 28° C. with constant illumination (approximately 2000 lux). Vibrio campbellii LMG21363 was stored in 40% glycerol at −80° C. Ten μl of this stored culture was inoculated into fresh Marine Broth (Difco Laboratories, Detroit, USA) and incubated overnight at 28° C. under constant agitation (100 min-1). The grown cultures of Vibrio campbellii were washed in autoclaved artificial seawater and the suspensions were diluted to an OD600 of approximately 0.1. 20 μl of the diluted suspensions was inoculated into the Artemia culture water. Aeromonas hydrophila LVS3 was used as feed for the nauplii (Defoirdt et al., 2005). The strain was grown overnight on Marine Agar (Difco Laboratories, Detroit, USA), suspended in sterile artificial seawater, diluted to an OD600 of approximately 1 and autoclaved. 300 μl of the autoclaved suspension was added to the Artemia culture water. […] Challenge tests were performed as described by Defoirdt et al. (2005), with slight modifications. Briefly, after hatching, groups of 20 nauplii were transferred to new sterile 50 ml tubes that contained 20 ml of filtered and autoclaved artificial seawater. The tubes were inoculated with Vibrio campbellii LMG21363 (except for the control, where no pathogen was added) and fed with LVS3. For the experiment with fatty acids, the fatty acids were dissolved in artificial seawater at different concentrations (25, 50 and 100 mM). The pH of the solutions was brought back to 7 and the solutions were filtersterilised over a 0.22 μm filter (Millipore, Bedford, USA). After feeding and the addition of the appropriate chemical and/or bacteria, the falcon tubes were put back on the rotor and kept at 28° C. […] All manipulations were done under a laminar flow hood in order to maintain sterility of the cysts and nauplii. Each treatment was done in triplicate.

[2] = system: Vibrio campbellii LMG21363; test: Growth of Vibrio campbellii LMG21363 in LB medium (OD600); type: cell-based; settings: pH 6
Procedure: Vibrio campbellii LMG21363 was grown overnight in LB medium on a shaker at 28° C. Subsequently, the suspension was diluted 1:50 (v/v) in LB medium supplemented with butyrate (Sigma-Aldrich, Bornem, Belgium) or β-hydroxybutyrate (Sigma-Aldrich, Bornem, Belgium). For each compound, three solutions were made with the following concentrations: 25, 50 and 100 mM. LB medium without supplements was used as a control. The pH of all solutions was set at 6, 7 or 8. After inoculation, the suspensions were incubated at 28° C. in a static mode. Growth was monitored by measuring the optical density (OD600) during 20 h. Each treatment was performed in triplicate.

broiler chickens [3] = test: Growth performance trial with broiler chickens, day 8 to day 22 (Rhodobacter sphaeroides biomass); type: in vivo, chickens (ROSS PM3); settings: dose 10 mg/kg
Procedure: A growth performance trial with broiler chickens was performed from day 8 to day 22. The chickens were housed in wire-floored battery cages. From day-old until day 8, the chickens were fed a pre-experimental diet based on wheat, maize and soybean meal. In the experimental period (day 8 to 22) the chickens received diets based on wheat, rye and soybean meal (composition see Table 1). Groups of birds were weighed on days 8, 15, and 22. The feed consumption for the intermediate periods was determined and body weight gain and feed conversion ratio were calculated.

broiler chickens [4] = test: Second broiler chicken growth trial with crystalline PHB, day 8 to day 29; type: in vivo; settings: Day 8-29; dose 10 mg/kg
[5] = 25 mM in culture water at start
[6] = 100 mM in culture water at start

CCCC(=O)O [butyrate]
Survival [1, 5]: 48 ± 2 % | Survival [1, 6]: 50 ± 5 %

CC(O)CC(=O)O (stereo not drawn) [β-hydroxybutyrate, 3-hydroxybutyrate]
Growth of Vibrio campbellii ([2]; 100 mM): strongly inhibited | Growth of Vibrio campbellii ([2]; lower concentrations): not completely inhibited | Survival [1, 5]: 38 ± 15% | Survival [1, 6]: 40 ± 3 %

COC[C@H]1O[C@@H](OC2OC[C@@H]3O[C@]4(O[C@H]3[C@H]2OC(=O)C(C)C)O[C@H](C)[C@@](O)(C(C)=O)[C@@H]2OCO[C@H]24)[C@@H](OC)[C@@H](O)[C@@H]1O[C@@H]1O[C@H](C)[C@H](OC)[C@H](O[C@H]2C[C@@]3(C)OC4(C[C@@H](O)[C@H](O[C@H]5C[C@@H](O)[C@H](OC(=O)c6c(C)c(Cl)c(O)c(Cl)c6OC)[C@@H](C)O5)[C@@H](C)O4)O[C@@H]3[C@@H](C)O2)[C@H]1O (stereo partly drawn) [Avilamycin]
Feed conversion (broiler chickens [3]; Day 8-15): 1.652 ± 0.090 g feed/g gain | Feed intake (broiler chickens [3]; Day 8-15): 552 ± 43 g/bird | Weight gain (broiler chickens [3]; Day 8-15): 334 ± 20 g/bird | Feed conversion (broiler chickens [3]; Day 8-22): 1.778 ± 0.072 g feed/g gain | Feed conversion relative to control (control 100.0) (broiler chickens [3]; Day 8-22): 94.9 | Feed intake (broiler chickens [3]; Day 8-22): 1441 ± 100 g/bird | Feed intake relative to control (control 100.0) (broiler chickens [3]; Day 8-22): 101.1 | Weight gain (broiler chickens [3]; Day 8-22): 810 ± 39 g/bird | Weight gain relative to control (control 100.0) (broiler chickens [3]; Day 8-22): 106.7 | Feed conversion (broiler chickens [3]; Day 15-22): 1.867 ± 0.078 g feed/g gain | Feed intake (broiler chickens [3]; Day 15-22): 889 ± 67 g/bird | Weight gain (broiler chickens [3]; Day 15-22): 476 ± 24 g/bird | FCR (broiler chickens [4]): 1.756 ± 0.079 g feed/g gain | FCR, % of control (broiler chickens [4]): 94.5% | Feed intake (broiler chickens [4]): 2402 ± 196 g/bird | Feed intake, % of control (broiler chickens [4]): 101.0% | Weight gain (broiler chickens [4]): 1367 ± 85 g/bird | Weight gain, % of control (broiler chickens [4]): 106.6%
